Results on 3 compounds are retold here after patent US20210106569A1, “OMIDENEPAG COMBINATION” (priority 2017, published 2021).

The test system of assay [1] is normal pressure monkeys. Description: Intraocular pressure lowering, concomitant administration of omidenepag isopropyl and netarsudil (Example 2). The class given is in vivo, cynomolgus monkey. The following applies: male cynomolgus monkeys, average of 8, eye drop 20 μL: omidenepag isopropyl 0.0006 w/v%, netarsudil 0.01 w/v% (dimesylate). The procedure: In order to examine usefulness of the combination of omidenepag or an ester thereof or a salt thereof and netarsudil, the effect of lowering an intraocular pressure when omidenepag isopropyl and netarsudil were administered concomitantly to experimental animals (normal pressure monkeys) was investigated.
(1) Preparation of Base of Omidenepag Isopropyl Solution • (Preparation of Compound Solution to be Tested) […]
(2) Preparation of Omidenepag Isopropyl Solution
(§1) To purified water were added omidenepag isopropyl, polyoxyl 35 castor oil, glycerin, sodium citrate, sodium edetate and benzalkonium chloride to dissolve them, and after adjusting pH, purified water was added to adjust the whole amount to prepare a 0.0006 w/v% omidenepag isopropyl solution.
(3) Preparation of Netarsudil Solution
Dimesylate of netarsudil was dissolved in a physiological saline solution containing a solubilizing agent, and then, a netarsudil solution having a desired concentration was prepared by using a commonly used method.
An effect of lowering an intraocular pressure when omidenepag isopropyl and netarsudil were administered concomitantly was investigated. As a comparative subject, an effect of lowering an intraocular pressure when omidenepag isopropyl or netarsudil was administered alone was also investigated. As a control, the base of the omidenepag isopropyl solution and the base of the netarsudil solution were administered.
Omidenepag isopropyl solution: 0.0006w/v% omidenepag isopropyl solution (volume of eye dropped: 20 μL)
Netarsudil solution: 0.01 w/v% netarsudil solution (volume of eye dropped: 20 μL)
Experimental animal: cynomolgus monkey (sex: male, 8 monkeys per a group)
[1] Contamitant Administration of Omidenepag Isopropyl and Netarsudil
(§2) (1) A drop of 0.4% oxybuprocaine hydrochloride eye drop (trade name: Benoxil (Registered Trademark) eye drops 0.4%) was applied to one eye of an experimental animal and local anesthesia was conducted.
(§3) (2) Immediately before administration of a compound solution to be tested, an intraocular pressure was measured and the value was made an initial intraocular pressure.
(3) The omidenepag isopropyl solution was applied to one eye of the experimental animal (the contralateral eye was untreated). After a short time (after about 5 minutes), the netarsudil solution was applied to the same eye.
(4) After 2 hours, 4 hours, 6 hours, 8 hours and 24 hours from applying the omidenepag isopropyl solution to the eye, one drop of 0.4% oxybuprocaine hydrochloride eye drop was applied to the eye to be measured for the intraocular pressure respectively, and after local anesthesia, the intraocular pressure was measured. Also, the intraocular pressure was measured each three times, and the average value was shown in the results. […]
The test was carried out in the same manner as the above-mentioned concomitant administration test except for changing the omidenepag isopropyl solution to the base of the omidenepag isopropyl solution. […]
The changes in the intraocular pressure values are shown by an average value±SEM of the difference from the value (0 hour) before administration of eight monkeys in each group with regard to each measurement time point of each individual. Here, the significance was evaluated by the Dunnett-Hsu test, and the significance level with respect to the control group was shown as *: p<0.05, **: p<0.01, and ***: p<0.001, the significance level with respect to the omidenepag isopropyl administered group was shown as †: p<0.05, ††: p<0.01, and †††: p<0.001, and the significance level with respect to the netarsudil administered group was shown as ♯♯: p<0.01, and ♯♯♯p<0.001.

Assay [2] has as its system normal pressure monkeys. Description: Intraocular pressure lowering, concomitant administration of omidenepag isopropyl and ripasudil (Example 1). As to conditions: male cynomolgus monkeys, average of 7, eye drop 20 μL: omidenepag isopropyl 0.0006 w/v%, ripasudil eye drops 0.4%. The class given is in vivo, cynomolgus monkey. How it is done: In order to examine usefulness of the combination of omidenepag or an ester thereof or a salt thereof and ripasudil, the effect of lowering an intraocular pressure when omidenepag isopropyl and ripasudil were administered concomitantly to experimental animals (normal pressure monkeys) was investigated.
To purified water were added polyoxyl 35 castor oil, glycerin, sodium citrate, sodium edetate and benzalkonium chloride to dissolve them, and after adjusting pH, purified water was added to adjust the whole amount.
as §1
Commercially available physiological saline solution (trade name: Otsuka Normal Saline, obtained from Otsuka Pharmaceutical Factory, Inc.) was used as it was.
Commercially available ripasudil eye drop was used as it was.
An effect of lowering an intraocular pressure when omidenepag isopropyl and ripasudil were administered concomitantly was investigated. As a comparative subject, an effect of lowering an intraocular pressure when omidenepag isopropyl or ripasudil was administered alone was also investigated. As a control, the base and the physiological saline solution were administered.
Omidenepag isopropyl solution: 0.0006w/v% omidenepag isopropyl solution (volume of eye dropped: 20 μL) Ripasudil solution: ripasudil eye drop (trade name: Glanatec (Registered Trademark) eye drops 0.4%, volume of eye dropped: 20 μL)
Experimental animal: cynomolgus monkey (sex: male, 7 monkeys per a group)
[1] Concomitant Administration of Omidenepag Isopropyl and Ripasudil
as §2, §3
(3) The omidenepag isopropyl solution was applied to one eye of the experimental animal (the contralateral eye was untreated). After a short time (after about 5 minutes), the ripasudil solution was applied to the same eye.
(4) After 2 hours, 4 hours, 6 hours, 8 hours and 24 hours from applying the omidenepag isopropyl solution to the eye, one drop of 0.4% oxybuprocaine hydrochloride eye drop was applied to the eye to be measured for the intraocular pressure respectively, and after local anesthesia, the intraocular pressure was measured. Also, the intraocular pressure was measured each three times, and the average value was shown in the results.
[2] Single Administration of Omidenepag Isopropyl
The test was carried out in the same manner as the above-mentioned concomitant administration test except for changing the ripasudil solution to the physiological saline solution.
[3] Single Administration of Ripasudil
The test was carried out in the same manner as the above-mentioned concomitant administration test except for changing the omidenepag isopropyl solution to the base.
The test was carried out in the same manner as the above-mentioned concomitant administration test except for changing the omidenepag isopropyl solution to the base and changing the ripasudil solution to the physiological saline solution.
The changes in the intraocular pressure values are shown by an average value±SEM of the difference from the value (0 hour) before administration of seven monkeys in each group with regard to each measurement time point of each individual. […]

The structures appear in SMILES notation.

As for `CC(C)OC(=O)CNc1cccc(CN(Cc2ccc(-n3cccn3)cc2)S(=O)(=O)c2cccnc2)n1` [Omidenepag isopropyl, isopropyl (6-{[4-(pyrazol-1-yl)benzyl](pyridin-3-ylsulfonyl)aminomethyl}pyridin-2-ylamino)acetate], the “change in intraocular pressure value (difference from value before administration)” value in assay [1] (2 hours after dropping) is recorded as −0.9; in assay [1] (4 hours after dropping), −2.5; in assay [1] (6 hours after dropping), −2.5; in assay [1] (8 hours after dropping) it was −2.3; in assay [1] (24 hours after dropping), −0.3; in assay [2] (2 hours after dropping), 0.0. Also, the “change in intraocular pressure value (difference from value before administration)” value in assay [2] (4 hours after dropping) was −1.2; in assay [2] (6 hours after dropping), −0.7; in assay [2] (8 hours after dropping) it was −0.6; in assay [2] (24 hours after dropping) it was −0.1.

As to `C[C@H]1CNCCCN1S(=O)(=O)c1cccc2cncc(F)c12` [Ripasudil, (S)-(-)-1-(4-fluoro-5-isoquinolinesulfonyl) 2-methyl-1,4-homopiperazine], the “change in intraocular pressure value (difference from value before administration)” value in assay [2] (2 hours after dropping) was −2.7; in assay [2] (4 hours after dropping), −1.6; in assay [2] (6 hours after dropping) it was −1.6; in assay [2] (8 hours after dropping), −0.8; in assay [2] (24 hours after dropping), 0.0.

`Cc1ccc(C(=O)OCc2ccc([C@@H](CN)C(=O)Nc3ccc4cnccc4c3)cc2)c(C)c1` [Netarsudil, [4-[(1S)-1-(aminomethyl)-2-(isoquinolin-6-ylamino)-2-oxoethyl]phenyl]methyl 2,4-dimethylbenzoate]: the “change in intraocular pressure value (difference from value before administration)” value in assay [1] (2 hours after dropping) was −1.5; in assay [1] (4 hours after dropping), −2.3; in assay [1] (6 hours after dropping), −3.0; in assay [1] (8 hours after dropping), −3.0; in assay [1] (24 hours after dropping), −0.8.
